# Assay results taken from US10633419B2, “Immunomodulators” (BRISTOL-MYERS SQUIBB COMPANY, priority 2014, dated 2020).
# Starred links: 1 amine or outer side, 2 acyl side, 3 side chain; linkers in the order of their positions; H or OH if unused. Positions of bridges follow the written chain, without caps; N, C: chain ends. Non-standard residues stand in square brackets, D forms with d. Residues, ends and D or L forms follow the SMILES beside them. ξ: configuration not given here. *: point of attachment. X12 = O=C(O)CCCCCCCCCCCCCCCCCCC(=O)N[C@@H](CCC(=O)NCCCOCCOCCOCCCN*)C(=O)O; X6 = O=C(O)CCCCCCCCCCCCCCCCC(=O)N[C@@H](CCC(=O)NCCCOCCOCCOCCCN*)C(=O)O; CH3O(CH2CH2O)11CH2CH2CO = COCCOCCOCCOCCOCCOCCOCCOCCOCCOCCOCCOCCC(=O)*; X18 = O=C(O)CCCCCCCCCCCCCCC(=O)N[C@@H](CC(=O)NCCCOCCOCCOCCCN*)C(=O)O; Trp(1-CH2COOH) = N[C@@H](Cc1cn(CC(=O)O)c2ccccc12)C(=O)O; Phe(3,4,5-F3) = N[C@@H](Cc1cc(F)c(F)c(F)c1)C(=O)O; X26 = O=C(O)Cn1cc(CC(N[*:1])C(=O)[*:2])c2ccccc21; NH(CH2)16COOH = O=C(O)CCCCCCCCCCCCCCCCN*; d(cisHyp) = O=C(O)[C@H]1C[C@@H](O)CN1; ξPro(4R-OH) = O=C(O)C1C[C@@H](O)CN1; Hyp = O=C(O)[CH]1C[CH](O)CN1; NMeF = CN[C@@H](Cc1ccccc1)C(=O)O; dHyp = O=C(O)[C@H]1C[C@H](O)CN1; NMeNle = CCCC[CH](NC)C(=O)O; Dap(Me) = CNC[C@H](N)C(=O)O; Pip = O=C(O)[C@@H]1CCCCN1; dPip = O=C(O)[C@H]1CCCCN1; NMeA = CN[CH](C)C(=O)O; Pra = C#CC[C@H](N)C(=O)O; Aun = NCCCCCCCCCCC(=O)O; Dab = NCC[CH](N)C(=O)O; Dap = NC[CH](N)C(=O)O
# Molecular target: T1, PD-L1 (Homo sapiens, UniProt Q9NZQ7)
# T1 construct: hPDL1(19-239)-TVMV-His; made in house; host or cells: HEK293T
# Test: PD-1/PD-L1 Homogenous Time-Resolved Fluorescence (HTRF) binding assay (PD-1-Ig/PD-L1-His)
# Details: not given
# Method in brief: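 HTRF competition in dPBS with 0.1% BSA and 0.05% Tween-20: 20 nM PD-1-Ig added after 15 min compound pre-incubation with 10 nM PD-L1-His, then another 15 min. Signal (665/620 nm) after 30 min with APC anti-His (20 nM) and Eu anti-Ig (1 nM).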
# T1 sequence (Q9NZQ7 with tags, fused parts or gaps): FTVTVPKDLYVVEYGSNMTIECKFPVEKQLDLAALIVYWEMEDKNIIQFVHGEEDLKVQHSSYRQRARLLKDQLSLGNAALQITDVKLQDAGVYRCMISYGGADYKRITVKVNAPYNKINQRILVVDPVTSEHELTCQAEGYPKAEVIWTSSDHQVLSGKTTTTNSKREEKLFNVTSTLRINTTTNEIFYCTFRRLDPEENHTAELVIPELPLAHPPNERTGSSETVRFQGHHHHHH
row,Compound,IC50 [nM]
1,CCCC[C@H]1C(=O)N(C)[C@@H](CCCC)C(=O)N[C@@H](CCC(=O)O)C(=O)N[C@H](C(=O)NCC(=O)N[C@@H](Cc2cn(CCOCCOCCOCCOCCOCCOCCOCCOC(=O)CCC(=O)Oc3c(C)c(C)c4c(c3C)CC[C@@](C)(CCC[C@H](C)CCC[C@H](C)CCCC(C)C)O4)nn2)C(=O)NCC(N)=O)CSCC(=O)N[C@@H](Cc2ccc(O)cc2)C(=O)N(C)[C@@H](C)C(=O)N[C@@H](CC(=O)O)C(=O)N2CCC[C@H]2C(=O)N[C@@H](Cc2c[nH]cn2)C(=O)N[C@@H](CCCCN)C(=O)N2C[C@H](O)C[C@H]2C(=O)N[C@@H](Cc2c[nH]c3ccccc23)C(=O)N[C@@H](CCCCN)C(=O)N[C@@H](Cc2c[nH]c3ccccc23)C(=O)N1C [Example 14052],10 to 99

# Same assay, conditions: inhibition of PD-1-Ig binding to PD-L1-TVMV-His; value given as number; read-out: HTRF IC50
row,IC50 [nM],Compound
1,280,CCCCC1C(=O)N(C)C(CCCC)C(=O)NC(CC(C)C)C(=O)NC(C(=O)NCC(=O)NCCCCCCCCCCCCCCCCC(=O)O)CSCC(=O)NC(Cc2ccc(O)cc2)C(=O)N(C)C(C)C(=O)NC(CC(N)=O)C(=O)N2CCCC2C(=O)NC(CN)C(=O)NC(CC(C)C)C(=O)N2CC(O)CC2C(=O)NC(Cc2c[nH]c3ccccc23)C(=O)NC(CCN)C(=O)NC(Cc2cn(CC(=O)O)c3ccccc23)C(=O)N1C (stereo not shown) [Example 11188] ({CH2CO}-Y[NMeA]NP[Dap]L[Hyp]W[Dab][X26][NMeNle][NMeNle]LCG-{NH(CH2)16COOH}; thioether N-14; configuration not given here)

# Same assay, conditions: inhibition of PD-1-Ig binding to PD-L1-TVMV-His; value given as range class; read-out: HTRF IC50
row,IC50 [nM],Compound
1,0.3 to 9.9,CCCC[C@H]1C(=O)N(C)[C@@H](CCCC)C(=O)N[C@@H](CC(C)C)C(=O)N[C@H](C(=O)NCC(=O)N[C@@H](CC(=O)O)C(=O)N[C@@H](CCC(=O)NCCCOCCOCCOCCCNC(=O)CC[C@H](NC(=O)CCCCCCCCCCCCCCCCCCC(=O)O)C(=O)O)C(=O)O)CSCC(=O)N[C@@H](Cc2ccc(O)cc2)C(=O)N(C)[C@@H](C)C(=O)N[C@@H](CC(N)=O)C(=O)N2CCC[C@H]2C(=O)N[C@@H](CN)C(=O)N[C@@H](CC(C)C)C(=O)N2C[C@H](O)CC2C(=O)N[C@@H](Cc2c[nH]c3ccccc23)C(=O)N[C@@H](CCN)C(=O)N[C@@H](Cc2cn(CC(=O)O)c3ccccc23)C(=O)N1C (stereo partly drawn) [Example 11249] ({CH2CO}-Y[NMeA]NP[Dap]L[ξPro(4R-OH)]W[Dab][Trp(1-CH2COOH)][NMeNle][NMeNle]LCGDE(X12)-OH; thioether N-14)
2,0.3 to 9.9,CCCC[C@H]1C(=O)N(C)[C@@H](CCCC)C(=O)N[C@@H](CC(C)C)C(=O)N[C@H](C(=O)NCC(=O)N[C@@H](CC(=O)O)C(=O)N[C@@H](CC(=O)NCCCOCCOCCOCCCNC(=O)CC[C@H](NC(=O)CCCCCCCCCCCCCCCCC(=O)O)C(=O)O)C(=O)O)CSCC(=O)N[C@@H](Cc2ccc(O)cc2)C(=O)N(C)[C@@H](C)C(=O)N[C@@H](CC(N)=O)C(=O)N2CCC[C@H]2C(=O)N[C@@H](CN)C(=O)N[C@@H](CC(C)C)C(=O)N2C[C@H](O)C[C@H]2C(=O)N[C@@H](Cc2c[nH]c3ccccc23)C(=O)N[C@@H](CCN)C(=O)N[C@@H](Cc2cn(CC(=O)O)c3ccccc23)C(=O)N1C [Example 11225] ({CH2CO}-Y[NMeA]NP[Dap]L[Hyp]W[Dab][Trp(1-CH2COOH)][NMeNle][NMeNle]LCGDD(X6)-OH; thioether N-14)
3,100 to 1600,CCCC[C@H]1C(=O)N(C)[C@@H](CCCC)C(=O)N[C@@H](CC(C)C)C(=O)N[C@H](C(=O)NCC(=O)N[C@@H](CC(=O)O)C(=O)NCCCOCCOCCOCCCNC(=O)CC[C@H](NC(=O)CCCCCCCCCCCCCCCCC(=O)O)C(=O)O)CSCC(=O)N[C@@H](Cc2ccc(O)cc2)C(=O)N(C)[C@@H](C)C(=O)N[C@@H](CC(N)=O)C(=O)N2CCC[C@H]2C(=O)N[C@@H](CN)C(=O)N[C@@H](CC(C)C)C(=O)N2C[C@H](O)C[C@@H]2C(=O)N[C@@H](Cc2c[nH]c3ccccc23)C(=O)N[C@@H](CCN)C(=O)N[C@@H](Cc2cn(CC(=O)O)c3ccccc23)C(=O)N1C [Example 11166] ({CH2CO}-Y[NMeA]NP[Dap]L[d(cisHyp)]W[Dab][Trp(1-CH2COOH)][NMeNle][NMeNle]LCGD-X6; thioether N-14)
4,0.3 to 9.9,C#CC[C@H](NC(=O)CNC(=O)[C@@H]1CSCC(=O)N[C@@H](Cc2ccc(O)cc2)C(=O)N2CCCC[C@H]2C(=O)N[C@@H](CC(N)=O)C(=O)N2CCC[C@H]2C(=O)N[C@@H](CNC)C(=O)N[C@@H](CC(C)C)C(=O)N2C[C@H](O)C[C@H]2C(=O)N[C@@H](Cc2c[nH]c3ccccc23)C(=O)N[C@@H](CCN)C(=O)N[C@@H](Cc2cn(CC(=O)O)c3ccccc23)C(=O)N(C)[C@@H](CCCC)C(=O)N(C)[C@@H](CCCC)C(=O)N[C@@H](CCC(=O)O)C(=O)N1)C(=O)O [INT130AL] ({CH2CO}-Y[Pip]NP[Dap(Me)]L[Hyp]W[Dab][Trp(1-CH2COOH)][NMeNle][NMeNle]ECG[Pra]-OH; thioether N-14)
5,10 to 99,CCCC[C@H]1C(=O)N(C)[C@@H](CCCC)C(=O)N[C@@H](CC(C)C)C(=O)N[C@H](C(=O)NCCCOCCOCCOCCCNC(=O)C[C@H](NC(=O)CCCCCCCCCCCCCCC(=O)O)C(=O)O)CSCC(=O)N[C@@H](Cc2ccc(O)cc2)C(=O)N(C)[C@@H](C)C(=O)N[C@@H](CC(N)=O)C(=O)N2CCC[C@@H]2C(=O)N[C@@H](CN)C(=O)N[C@@H](CC(C)C)C(=O)N2C[C@@H](O)C[C@@H]2C(=O)N[C@@H](Cc2c[nH]c3ccccc23)C(=O)N[C@@H](CCN)C(=O)N[C@@H](Cc2cn(CC(=O)O)c3ccccc23)C(=O)N1C [Example 11242] ({CH2CO}-Y[NMeA]N[dP][Dap]L[dHyp]W[Dab][Trp(1-CH2COOH)][NMeNle][NMeNle]LC-X18; thioether N-14)
6,0.3 to 9.9,"CCCC[C@H]1C(=O)N2C[C@H](O)C[C@@H]2C(=O)N[C@@H](CC(=O)O)C(=O)N[C@@H](C(C)C)C(=O)N(C)[C@@H](Cc2ccccc2)C(=O)N[C@@H](Cc2ccc(O)cc2)C(=O)N2CCCC[C@@H]2C(=O)N[C@@H](Cc2c[nH]c3ccccc23)C(=O)N[C@@H](Cc2ccc(O)cc2)C(=O)N[C@@H](CC(C)C)C(=O)N[C@H](C(=O)NCC(=O)NCC(=O)NCC(=O)N[C@@H](CCCCNC(=O)CCOCCOCCOCCOCCOCCOCCOCCOCCOCCOCCOCCOC)C(N)=O)CSCC(=O)N[C@@H](Cc2cc(F)c(F)c(F)c2)C(=O)N(C)[C@@H](Cc2ccccc2)C(=O)N1C [Example 3624] ({CH2CO}-[Phe(3,4,5-F3)][NMeF][NMeNle][d(cisHyp)]DV[NMeF]Y[dPip]WYLCGGGK(CH3O(CH2CH2O)11CH2CH2CO)-NH2; thioether N-13)"
7,100 to 1600,C=C1N[C@@H](Cc2c[nH]c3ccccc23)C(=O)N[C@@H](CCN)C(=O)N[C@@H](Cc2cn(CC(=O)O)c3ccccc23)C(=O)N(C)[C@@H](CCCC)C(=O)N(C)[C@@H](CCCC)C(=O)N[C@@H](CC(C)C)C(=O)N[C@H](C(=O)NCC(=O)N[C@@H](CC(=O)NCCOCCOCCOCCOCCOCCOCCC(=O)NC[C@H](NC(=O)CCCCCCCCCCCCCCCCC(=O)O)C(=O)O)C(=O)O)CSCC(=O)N[C@@H](Cc2ccc(O)cc2)C(=O)N(C)[C@@H](C)C(=O)N[C@@H](CC(N)=O)C(=O)N2CCC[C@H]2C(=O)N[C@@H](CN)C(=O)N[C@@H](CC(C)C)C(=O)N2C[C@H](O)C[C@@]12O [Example 11183]
8,10 to 99,CCCC[C@H]1C(=O)N(C)[C@@H](CCCC)C(=O)N[C@@H](CCC(=O)O)C(=O)N[C@H](C(=O)NCC(=O)NCC(=O)NCC(=O)NCCCCCCCCCCC(=O)O)CSCC(=O)N[C@@H](Cc2ccc(O)cc2)C(=O)N(C)[C@@H](C)C(=O)N[C@@H](CC(=O)O)C(=O)N2CCC[C@H]2C(=O)N[C@@H](CN)C(=O)N[C@@H](CC(C)C)C(=O)N2C[C@H](O)C[C@@H]2C(=O)N[C@@H](Cc2c[nH]c3ccccc23)C(=O)N[C@@H](CCN)C(=O)N[C@@H](Cc2cn(CC(=O)O)c3ccccc23)C(=O)N1C [Example 11144] ({CH2CO}-Y[NMeA]DP[Dap]L[d(cisHyp)]W[Dab][Trp(1-CH2COOH)][NMeNle][NMeNle]ECGGG[Aun]-OH; thioether N-14)
9,0.3 to 9.9,CCCC[C@H]1C(=O)N(C)[C@@H](CCCC)C(=O)N[C@@H](CCCNC(=N)N)C(=O)N[C@H](C(=O)NCCCCCCCCCCC(N)=O)CSCC(=O)N[C@@H](Cc2ccc(O)cc2)C(=O)N(C)[C@@H](C)C(=O)N[C@@H](CC(=O)O)C(=O)N2CCC[C@H]2C(=O)N[C@@H](Cc2cnc[nH]2)C(=O)N[C@@H](CC(C)C)C(=O)N2C[C@H](O)C[C@H]2C(=O)N[C@@H](Cc2c[nH]c3ccccc23)C(=O)N[C@@H](CO)C(=O)N[C@@H](Cc2c[nH]c3ccccc23)C(=O)N1C [Example 11064] ({CH2CO}-Y[NMeA]DPHL[Hyp]WSW[NMeNle][NMeNle]RC[Aun]-NH2; thioether N-14)
10,100 to 1600,CCCCCCCCCCCCCCCCNC(=O)[C@H](CC(=O)O)NC(=O)CCCCCCCCCCNC(=O)[C@@H]1CSCC(=O)N[C@@H](Cc2ccc(O)cc2)C(=O)N(C)[C@@H](C)C(=O)N[C@@H](CC(N)=O)C(=O)N2CCC[C@H]2C(=O)N[C@@H](Cc2cnc[nH]2)C(=O)N[C@@H](CC(C)C)C(=O)N2C[C@H](O)C[C@H]2C(=O)N[C@@H](Cc2c[nH]c3ccccc23)C(=O)N[C@@H](CO)C(=O)N[C@@H](Cc2c[nH]c3ccccc23)C(=O)N(C)[C@@H](CCCC)C(=O)N(C)[C@@H](CCCC)C(=O)N[C@@H](CCCNC(=N)N)C(=O)N1 [Example 11119]
11,0.3 to 9.9,C#CC[C@H](NC(=O)CNC(=O)[C@@H]1CSCC(=O)N[C@@H](Cc2ccc(O)cc2)C(=O)N2CCCC[C@H]2C(=O)N[C@@H](CC(N)=O)C(=O)N2CCC[C@H]2C(=O)N[C@@H](CN)C(=O)N[C@@H](CC(C)C)C(=O)N2C[C@H](O)C[C@H]2C(=O)N[C@@H](Cc2c[nH]c3ccccc23)C(=O)N[C@@H](CCN)C(=O)N[C@@H](Cc2cn(CC(=O)O)c3ccccc23)C(=O)N(C)[C@@H](CCCC)C(=O)N(C)[C@@H](CCCC)C(=O)N[C@@H](CCC(=O)O)C(=O)N1)C(=O)O [INT130AJ] ({CH2CO}-Y[Pip]NP[Dap]L[Hyp]W[Dab][Trp(1-CH2COOH)][NMeNle][NMeNle]ECG[Pra]-OH; thioether N-14)
